According to ChEMBL document CHEMBL5634148, “Synthesis and evaluation of novel pleuromutilin derivatives targeting the 50S ribosomal subunit for antibacterial ability” (Eur J Med Chem, 2023):
Converted amounts (≈) assume the structure as drawn. The source made the active and inactive calls. The calls are words filed in the database; no cut-off is given here.

Legend:
[1] = Cytotoxicity against human HepG2 cells assessed as cell viability incubated for 6 hrs by CCK8 assay; assay type: toxicity, cell-based
Staphylococcus aureus [2] = experiment: Antibacterial activity against Staphylococcus aureus assessed as reduction in bacterial count at 1 to 6 times MIC incubated for 24 hrs by time kill assay; assay type: functional
Staphylococcus aureus [3] = experiment: Bactericidal activity against Staphylococcus aureus incubated for 24 hrs by time kill assay; assay type: functional, organism-based
[4] = Toxicity in po-dosed Wistar rat measured for 14 days by H and E staining based analysis; conditions: in vivo, time 14 day
Staphylococcus aureus [5] = experiment: Antibacterial activity against methicillin-resistant Staphylococcus aureus BNCC 337371 assessed as bacterial growth inhibition incubated for 18 to 24 hrs by NCCLS based assay; assay type: functional; conditions: time 18-24 hrs
[6] = system: Staphylococcus epidermidis; experiment: Antibacterial activity against methicillin-resistant Staphylococcus epidermidis ATCC 51625 assessed as bacterial growth inhibition incubated for 18 to 24 hrs by NCCLS based assay; assay type: functional; conditions: time 18-24 hrs
Staphylococcus aureus [7] = experiment: Antibacterial activity against Staphylococcus aureus ATCC 25923 assessed as bacterial growth inhibition incubated for 18 to 24 hrs by NCCLS based assay; assay type: functional; conditions: time 18-24 hrs
Streptococcus agalactiae = experiment: Antibacterial activity against Streptococcus agalactiae assessed as bacterial growth inhibition incubated for 18 to 24 hrs by NCCLS based assay; assay type: functional; conditions: time 18-24 hrs
Enterococcus faecalis = experiment: Antibacterial activity against Enterococcus faecalis assessed as bacterial growth inhibition incubated for 18 to 24 hrs by NCCLS based assay; assay type: functional; conditions: time 18-24 hrs
Pasteurella multocida = experiment: Antibacterial activity against Pasteurella multocida CVCC 1659 assessed as bacterial growth inhibition incubated for 18 to 24 hrs by NCCLS based assay; assay type: functional; conditions: time 18-24 hrs
Staphylococcus aureus [8] = experiment: Drug resistance against Staphylococcus aureus assessed as fold increase in MIC measured after 21 passages relative to control; assay type: functional
Staphylococcus aureus [9] = experiment: Drug sensitivity against Staphylococcus aureus at 1/4 times MIC measured after 4 passages; assay type: functional, organism-based
[10] = Cytotoxicity against human HepG2 cells assessed as cell viability at 200 uM incubated for 6 hrs by CCK8 assay relative to control; assay type: toxicity, cell-based; conditions: read-out: Activity
[11] = Cytotoxicity against HEK293T cells assessed as cell viability at 200 uM incubated for 6 hrs by CCK8 assay relative to control; assay type: toxicity, cell-based, HEK-293T; conditions: human, read-out: Activity
[12] = Toxicity in Wistar rat assessed as trembling at 2000 mg/kg, po measured for 24 hrs; assay type: organism-based; conditions: in vivo
[13] = Toxicity in Wistar rat assessed as physical activity at 2000 mg/kg, po measured for 24 hrs; assay type: organism-based; conditions: in vivo
[14] = Toxicity in Wistar rat assessed as trembling at 2000 mg/kg, po measured for 48 hrs; assay type: organism-based; conditions: in vivo
[15] = Toxicity in Wistar rat assessed as piloerection at 2000 mg/kg, po measured for 48 hrs; assay type: organism-based; conditions: in vivo
[16] = Toxicity in Wistar rat assessed as body weight loss at 2000 mg/kg, po measured for 14 days; assay type: organism-based; conditions: in vivo, 336 h, time 14 day
[17] = Toxicity in Wistar rat assessed as food intake at 2000 mg/kg, po measured for 14 days; assay type: organism-based; conditions: in vivo, 336 h, time 14 day
[18] = Toxicity in Wistar rat assessed as water consumption at 2000 mg/kg, po measured for 14 days; assay type: organism-based; conditions: in vivo, 336 h, time 14 day
[19] = Toxicity in Wistar rat assessed as fatality at 2000 mg/kg, po measured for 7 days; assay type: organism-based; conditions: in vivo, 168 h, time 7 day
[20] = Toxicity in Wistar rat assessed as absolute liver weight at 2000 mg/kg, po measured after 14 days (reference value: 10.02 +/- 0.44 g); assay type: organism-based; conditions: in vivo, 336 h, time 14 day
[21] = Toxicity in Wistar rat assessed as absolute lungs weight at 2000 mg/kg, po measured after 14 days (reference value: 1.38 +/- 0.17 g); assay type: organism-based; conditions: in vivo, 336 h, time 14 day
[22] = Toxicity in Wistar rat assessed as absolute kidneys weight at 2000 mg/kg, po measured after 14 days (reference value: 1.77 +/- 0.16 g); assay type: organism-based; conditions: in vivo, 336 h, time 14 day
[23] = Toxicity in Wistar rat assessed as absolute uterus weight at 2000 mg/kg, po measured after 14 days (reference value: 0.87 +/- 0.06 g); assay type: organism-based; conditions: in vivo, 336 h, time 14 day
[24] = Toxicity in Wistar rat assessed as relative liver weight at 2000 mg/kg, po measured after 14 days (reference value: 4.37 +/- 0.18 %); assay type: organism-based; conditions: in vivo, 336 h, time 14 day
[25] = Toxicity in Wistar rat assessed as relative spleen weight at 2000 mg/kg, po measured after 14 days (reference value: 0.20 +/- 0.07 %); assay type: organism-based; conditions: in vivo, 336 h, time 14 day
[26] = Toxicity in Wistar rat assessed as relative lungs weight at 2000 mg/kg, po measured after 14 days (reference value: 0.62 +/- 0.18 %); assay type: organism-based; conditions: in vivo, 336 h, time 14 day
[27] = Toxicity in Wistar rat assessed as relative kidneys weight at 2000 mg/kg, po measured after 14 days (reference value: 0.91 +/- 0.18 %); assay type: organism-based; conditions: in vivo, 336 h, time 14 day
[28] = Toxicity in Wistar rat assessed as relative uterus weight at 2000 mg/kg, po measured after 14 days (reference value: 0.45 +/- 0.03 %); assay type: organism-based; conditions: in vivo, 336 h, time 14 day
[29] = Toxicity in Wistar rat assessed as congestion in hepatic central vein at 2000 mg/kg, po measured for 14 days by H and E staining based analysis; assay type: organism-based; conditions: in vivo, 336 h, time 14 day
[30] = Toxicity in Wistar rat assessed as hepatocyte fatty degeneration at 2000 mg/kg, po measured for 14 days by H and E staining based analysis; assay type: organism-based; conditions: hepatocytes, 336 h, time 14 day
[31] = Toxicity in Wistar rat assessed as proliferation of oval cells in liver at 2000 mg/kg, po measured for 14 days by H and E staining based analysis; assay type: organism-based; conditions: in vivo, 336 h, time 14 day
[32] = Toxicity in Wistar rat assessed as degeneration of alveolar epithelial cells in lungs at 2000 mg/kg, po measured for 14 days by H and E staining based analysis; assay type: organism-based; conditions: in vivo, 336 h, time 14 day
[33] = Toxicity in Wistar rat assessed as necrosis of alveolar epithelial cells in lungs at 2000 mg/kg, po measured for 14 days by H and E staining based analysis; assay type: organism-based; conditions: in vivo, 336 h, time 14 day
[34] = Toxicity in neutropenic Balb/c mouse model infected with methicillin-resistant Staphylococcus aureus assessed as animal survival at 40 mg/kg, iv measured for 7 days; assay type: organism-based; conditions: in vivo, 168 h, time 7 day
Staphylococcus aureus [35] = experiment: Antibacterial activity against methicillin-resistant Staphylococcus aureus infected in neutropenic Balb/c mouse model assessed as reduction in bacterial load in lungs at 40 mg/kg, iv measured after 5 days; assay type: functional; conditions: time 5 day
Staphylococcus aureus [36] = experiment: Antibacterial activity against methicillin-resistant Staphylococcus aureus infected in neutropenic Balb/c mouse model assessed as reduction in bacterial load in lungs at 15 mg/kg, iv measured after 5 days; assay type: functional; conditions: time 5 day
Staphylococcus aureus [37] = experiment: Antibacterial activity against methicillin-resistant Staphylococcus aureus infected in neutropenic Balb/c mouse model assessed as reduction in bacterial load in liver at 40 mg/kg, iv measured after 5 days; assay type: functional, organism-based; conditions: time 5.0 day
Staphylococcus aureus [38] = experiment: Antibacterial activity against methicillin-resistant Staphylococcus aureus infected in neutropenic Balb/c mouse model assessed as reduction in inflammatory cell infiltration in lungs at 40 mg/kg, iv measured after 5 days; assay type: functional, organism-based; conditions: time 5.0 day
Staphylococcus aureus [39] = experiment: Antibacterial activity against methicillin-resistant Staphylococcus aureus infected in neutropenic Balb/c mouse model assessed as thickening of alveolar septa in lungs at 40 mg/kg, iv measured after 5 days; assay type: functional, organism-based; conditions: time 5.0 day

SMILES: C=C[C@]1(C)C[C@@H](OC(=O)CSc2ncnc(N(C)C)n2)[C@]2(C)[C@H](C)CC[C@]3(CCC(=O)[C@H]32)[C@@H](C)[C@@H]1O
- CC50 at 6 h [1]: 84.6 µM
- log(activity) (Staphylococcus aureus [2]): 2.5
- Activity (Staphylococcus aureus [3]): Dose-Dependent Effect
- LD50 at 336 h [4]: > 2000 mg/kg
- MIC (Staphylococcus aureus [5]): 0.031 µg/mL (≈ 0.06 µM)
- MIC [6]: 0.125 µg/mL (≈ 0.242 µM)
- MIC (Staphylococcus aureus [7]): 0.031 µg/mL (≈ 0.06 µM)
- MIC (Streptococcus agalactiae): 0.063 µg/mL (≈ 0.122 µM)
- MIC (Enterococcus faecalis): 32 µg/mL (≈ 61.9 µM)
- MIC (Pasteurella multocida): ≥ 64 µg/mL
- fold change (FC) (Staphylococcus aureus [8]): 16
- Activity (Staphylococcus aureus [9]): Active
- viability at 6 h, 200 µM [10]: 60.2%
- viability at 6 h, 200 µM [11]: 66.9%
- Activity [12]: Toxic
- Activity [13]: Toxic
- Activity [14]: Non-Toxic
- Activity [15]: Non-Toxic
- Activity [16]: Toxic
- Activity [17]: Toxic
- Activity [18]: Toxic
- Activity [19]: Non-Toxic
- Activity [20]: 9.09 g
- Activity [21]: 1.21 g
- Activity [22]: 1.85 g
- Activity [23]: 0.68 g
- Activity [24]: 3.99%
- Activity [25]: 0.26%
- Activity [26]: 0.53%
- Activity [27]: 0.74%
- Activity [28]: 0.29%
- Activity [29]: Toxic
- Activity [30]: Toxic
- Activity [31]: Toxic
- Activity [32]: Toxic
- Activity [33]: Toxic
- Activity [34]: 70%
- Activity (Staphylococcus aureus [35]): 2.52 log10CFU/ml
- Activity (Staphylococcus aureus [36]): 1.82 log10CFU/ml
- Activity (Staphylococcus aureus [37]): Active
- Activity (Staphylococcus aureus [38]): Active
- Activity (Staphylococcus aureus [39]): Active
